Measurements taken from patent publication US11472808B2, “Substituted pyrrolo[1,2-c]pyrimidines as hepatitis B antiviral agents” (Enanta Pharmaceuticals, Inc., priority 2019, dated 2022).

Tests used:
HBV = assay: HepAD38 anti-HBV assay: reduction of viral product accumulation (virion DNA qPCR, HBsAg/HBeAg ELISA); type: cell-based; conditions: Hepatitis B virus, 120 h; HepAD38 cells; concentration reducing viral product accumulation by 50% relative to no drug controls; harvest five days after compound addition; read-out: HepAD38 EC50
In short: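 Tetracycline-free HepAD38 cells treated 5 days with compound (1:200 DMSO dilution), or 8 days with media and compound refreshed on d2 and d5. Virion DNA quantified by qPCR; HBsAg or HBeAg by ELISA. EC50 is the concentration reducing viral product accumulation 50% versus no-drug controls.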

[1] = Compound toxicity, ATPLite total ATP levels; type: cell-based; conditions: human, HepG2 cells; concentration reducing total ATP levels by 50% relative to no drug controls; ATPLite three days after compound addition
Experimental: Compound toxicity is evaluated by seeding cells at 15,000 cells/well and treating with compound as described above.

SMILES	EC50 (HBV)	CC50 at 3 days [1]
O=S(=O)(N[C@H]1CC2=C(c3ccn(C(F)F)n3)[C@H](c3ccc(F)cc3Cl)N=C(c3nccs3)N2C1)N1CCC(O)(c2ccccn2)CC1 [Example 266]	< 100 nM	> 25000 nM
CC(C)[C@H](NS(=O)(=O)N[C@H]1CC2=C(c3ccn(C(F)F)n3)[C@H](c3ccc(F)cc3Cl)N=C(c3nccs3)N2C1)c1ccccn1 [Example 342]	< 100 nM	> 25000 nM
CS(=O)(=O)N1CCN(S(=O)(=O)N[C@H]2CC3=C(c4ccn(C(F)F)n4)[C@H](c4ccc(F)cc4Cl)N=C(c4nccs4)N3C2)CC1 [Example 151]	< 100 nM	> 25000 nM
O=S(=O)(N[C@H]1CC2=C(c3ccn(C(F)F)n3)[C@H](c3ccc(F)cc3Cl)N=C(c3nccs3)N2C1)N1CC[C@H](O)C1 [Example 91]	< 100 nM	> 25000 nM
O=S(=O)(N[C@H]1CC2=C(c3ccn(C(F)F)n3)[C@H](c3ccc(F)cc3Cl)N=C(c3nccs3)N2C1)[C@H]1CC[C@H](O)CC1 [Example 98]	< 100 nM	> 25000 nM
O=S(=O)(N[C@H]1CC2=C(c3ccn(C(F)F)n3)[C@H](c3ccc(F)cc3Cl)N=C(c3nccs3)N2C1)N1CC(O)(c2ccccn2)C1 [Example 269]	< 100 nM	> 25000 nM
O=S(=O)(NCCCO)N[C@H]1CC2=C(c3ccn(C(F)F)n3)[C@H](c3ccc(F)cc3Cl)N=C(c3nccs3)N2C1 [Example 79]	< 100 nM	> 25000 nM
O=S(=O)(N[C@H]1CC2=C(c3ccn(C(F)F)n3)[C@H](c3ccc(F)cc3Cl)N=C(c3nccs3)N2C1)C1CCC1 [Example 324]	< 100 nM	10000 to 25000 nM
O=S(=O)(N[C@H]1CC2=C(c3ccn(C(F)F)n3)[C@H](c3ccc(F)cc3Cl)N=C(c3nccs3)N2C1)N1CCC(O)(C2CCCC2)CC1 [Example 267]	< 100 nM	> 25000 nM
O=C(N[C@H]1CC2=C(c3ccn(C(F)F)n3)[C@H](c3ccc(F)cc3Cl)N=C(c3nccs3)N2C1)c1nccs1 [Example 235]	< 100 nM	> 25000 nM
O=S(=O)(N[C@H]1CC2=C(c3ccn(C(F)F)n3)[C@H](c3ccc(F)cc3Cl)N=C(c3nccs3)N2C1)N1CCC[C@@H](O)C1 [Example 94]	< 100 nM	> 25000 nM
O=S(=O)(N[C@H]1CC2=C(c3ccn(C(F)F)n3)[C@H](c3ccc(F)cc3Cl)N=C(c3nccs3)N2C1)N1CCC(CO)CC1 [Example 88]	< 100 nM	> 25000 nM
O=S(=O)(N[C@H]1CC2=C(c3ccn(C(F)F)n3)[C@H](c3ccc(F)cc3Cl)N=C(c3nccs3)N2C1)N[C@H]1CC[C@H](O)CC1 [Example 155]	< 100 nM	> 25000 nM
O=S(=O)(N[C@H]1CC2=C(c3ccn(C(F)F)n3)[C@H](c3ccc(F)cc3Cl)N=C(c3nccs3)N2C1)[C@H]1CC[C@](O)(CO)CC1 [Example 100]	< 100 nM	> 25000 nM
O=S(=O)(N[C@H]1CC2=C(c3ccn(C(F)F)n3)[C@H](c3ccc(F)cc3Cl)N=C(c3nccs3)N2C1)C1(CCO)CC1 [Example 379]	< 100 nM	10000 to 25000 nM
O=S(=O)(N[C@H]1CC2=C(c3ccn(C(F)F)n3)[C@H](c3ccc(F)cc3Cl)N=C(c3nccs3)N2C1)N1CCC(O)(c2cccnc2)CC1 [Example 264]	< 100 nM	> 25000 nM
CS(=O)(=O)c1ccc(S(=O)(=O)N[C@H]2CC3=C(c4ccn(C(F)F)n4)[C@H](c4ccc(F)cc4Cl)N=C(c4nccs4)N3C2)cc1 [Example 323]	< 100 nM	10000 to 25000 nM
O=S(=O)(N[C@H]1CC2=C(c3ccn(C(F)F)n3)[C@H](c3ccc(F)cc3Cl)N=C(c3nccs3)N2C1)N1CCC(O)(c2ncccn2)CC1 [Example 303]	< 100 nM	> 25000 nM
O=S(=O)(N[C@H]1CC2=C(c3ccn(C(F)F)n3)[C@H](c3ccc(F)cc3Cl)N=C(c3nccs3)N2C1)C1(c2ccccn2)CC1 [Example 377]	< 100 nM	> 25000 nM
O=S(=O)(N[C@H]1CC2=C(c3ccn(C(F)F)n3)[C@H](c3ccc(F)cc3Cl)N=C(c3nccs3)N2C1)N[C@H]1CC[C@@H](O)CC1 [Example 154]	< 100 nM	> 25000 nM
O=S(=O)(CCl)N[C@H]1CC2=C(c3ccn(C(F)F)n3)[C@H](c3ccc(F)cc3Cl)N=C(c3nccs3)N2C1 [Example 70]	< 100 nM	> 25000 nM
O=S(=O)(N[C@H]1CC2=C(c3ccn(C(F)F)n3)[C@H](c3ccc(F)cc3Cl)N=C(c3nccs3)N2C1)N1CC2CC2C1 (some centres unmarked) [Example 273]	< 100 nM	< 10000 nM
O=S(=O)(N[C@H]1CC2=C(c3ccn(C(F)F)n3)[C@H](c3ccc(F)cc3Cl)N=C(c3nccs3)N2C1)c1ncc[nH]1 [Example 362]	< 100 nM	> 25000 nM
O=S(=O)(N[C@H]1CC2=C(c3ccn(C(F)F)n3)[C@H](c3ccc(F)cc3Cl)N=C(c3nccs3)N2C1)c1cccc(F)c1 [Example 386]	< 100 nM	10000 to 25000 nM
O=S(=O)(N[C@H]1CC2=C(c3ccn(C(F)F)n3)[C@H](c3ccc(F)cc3Cl)N=C(c3nccs3)N2C1)c1ccc([C@H]2CC[C@H](O)CC2)cc1 [Example 381]	< 100 nM	10000 to 25000 nM

SMILES	EC50 (HBV)	CC50 at 3 days [1]
O=S1(=O)CCN(S(=O)(=O)N[C@H]2CC3=C(c4ccn(C(F)F)n4)[C@H](c4ccc(F)cc4Cl)N=C(c4nccs4)N3C2)CC1 [Example 150]	< 100 nM	> 25000 nM
O=C1CCCN1C1CCN(S(=O)(=O)N[C@H]2CC3=C(c4ccn(C(F)F)n4)[C@H](c4ccc(F)cc4Cl)N=C(c4nccs4)N3C2)CC1 [Example 293]	< 100 nM	> 25000 nM
O=S(=O)(N[C@H]1CC2=C(c3ccn(C(F)F)n3)[C@H](c3ccc(F)cc3Cl)N=C(c3nccs3)N2C1)c1cccnc1 [Example 365]	< 100 nM	> 25000 nM
O=C1OCCN1C1CCN(S(=O)(=O)N[C@H]2CC3=C(c4ccn(C(F)F)n4)[C@H](c4ccc(F)cc4Cl)N=C(c4nccs4)N3C2)CC1 [Example 302]	< 100 nM	> 25000 nM
O=S(=O)(N[C@H]1CC2=C(c3ccn(C(F)F)n3)[C@H](c3ccc(F)cc3Cl)N=C(c3nccs3)N2C1)c1ccccc1 [Example 367]	< 100 nM	> 25000 nM
O=S(=O)(N[C@H]1CC2=C(c3ccn(C(F)F)n3)[C@H](c3ccc(F)cc3Cl)N=C(c3nccs3)N2C1)N1CC[C@@H](O)C1 [Example 92]	< 100 nM	> 25000 nM
O=C1NCCN1C1CCN(S(=O)(=O)N[C@H]2CC3=C(c4ccn(C(F)F)n4)[C@H](c4ccc(F)cc4Cl)N=C(c4nccs4)N3C2)CC1 [Example 294]	< 100 nM	> 25000 nM
O=C1OCCN1S(=O)(=O)N[C@H]1CC2=C(c3ccn(C(F)F)n3)[C@H](c3ccc(F)cc3Cl)N=C(c3nccs3)N2C1 [Example 72]	< 100 nM	> 25000 nM
O=S(=O)(N[C@H]1CC2=C(c3ccn(C(F)F)n3)[C@H](c3ccc(F)cc3Cl)N=C(c3nccs3)N2C1)N1CCC(O)CC1 [Example 75]	< 100 nM	> 25000 nM
O=S(=O)(N[C@H]1CC2=C(c3ccn(C(F)F)n3)[C@H](c3ccc(F)cc3Cl)N=C(c3nccs3)N2C1)C1(C[C@@H](O)CO)CC1 [Example 424]	< 100 nM	> 25000 nM
O=S(=O)(N[C@H]1CC2=C(c3ccn(C(F)F)n3)[C@H](c3ccc(F)cc3Cl)N=C(c3nccs3)N2C1)N1CCCC[C@@H]1C(F)(F)F [Example 301]	< 100 nM	> 25000 nM
O=S(=O)(N[C@H]1CC2=C(c3ccn(C(F)F)n3)[C@H](c3ccc(F)cc3Cl)N=C(c3nccs3)N2C1)c1ccc(-c2cccnc2)cn1 [Example 403]	< 100 nM	> 25000 nM
COC(=O)Cc1ccc(S(=O)(=O)N[C@H]2CC3=C(c4ccn(C(F)F)n4)[C@H](c4ccc(F)cc4Cl)N=C(c4nccs4)N3C2)cc1 [Example 35]	< 100 nM	–
CCOC(=O)C1CCN(S(=O)(=O)N[C@H]2CC3=C(c4ccn(C(F)F)n4)[C@H](c4ccc(F)cc4Cl)N=C(c4nccs4)N3C2)CC1 [Example 87]	< 100 nM	–
CS(=O)(=O)[C@H]1CC2=C(c3ccn(C(F)F)n3)[C@H](c3ccc(F)cc3Cl)N=C(c3nccs3)N2C1 [Example 134]	100 to 400 nM	–
O=S(=O)(N[C@H]1CC2=C(c3ccn(C(F)F)n3)[C@H](c3ccc(F)cc3Cl)N=C(c3nccs3)N2C1)c1cccc(Cl)c1F [Example 396]	100 to 400 nM	–
OCC[C@@]1(F)CC2=C(c3ccn(C(F)F)n3)[C@H](c3ccc(F)cc3Cl)N=C(c3nccs3)N2C1 [Example 168]	< 100 nM	–
O[C@@]1(CCl)CC2=C(c3ccn(C(F)F)n3)[C@H](c3ccc(F)cc3Cl)N=C(c3nccs3)N2C1 [Example 124]	< 100 nM	–
O=S(=O)(C[C@@H]1CC2=C(c3ccn(C(F)F)n3)[C@H](c3ccc(F)cc3Cl)N=C(c3nccs3)N2C1)N1CCCCC1 [Example 298]	100 to 400 nM	–
O[C@]1(CCl)CC2=C(c3ccn(C(F)F)n3)[C@H](c3ccc(F)cc3Cl)N=C(c3nccs3)N2C1 [Example 125]	< 100 nM	–
COC(=O)N1CCN(C(=O)N[C@H]2CC3=C(c4ccn(C(F)F)n4)[C@H](c4ccc(F)cc4Cl)N=C(c4nccs4)N3C2)CC1 [Example 221]	100 to 400 nM	–
COC(=O)N[C@H]1CC2=C(c3ccn(C(F)F)n3)[C@H](c3ccc(F)cc3Cl)N=C(c3nccs3)N2C1 [Example 198]	< 100 nM	–
COC(=O)Cc1cccc(S(=O)(=O)N[C@H]2CC3=C(c4ccn(C(F)F)n4)[C@H](c4ccc(F)cc4Cl)N=C(c4nccs4)N3C2)c1 [Example 31]	< 100 nM	–
C[C@H](NC(=O)CC1(S(=O)(=O)N[C@H]2CC3=C(c4ccn(C(F)F)n4)[C@H](c4ccc(F)cc4Cl)N=C(c4nccs4)N3C2)CC1)c1ccccn1 [Example 374]	< 100 nM	–
